Test system: M. tuberculosis H37Ra in murine alveolar macrophage-like cell line MH-S
Experiment: microbe, parasite or virus in culture
Assay type: cell-based
Settings: Mycobacterium tuberculosis, 24 h

## C=C(NC(=O)C(=C)NC(=O)c1csc(C2=N[C@@H]3c4csc(n4)[C@H]4NC(=O)c5csc(n5)[C@H]([C@](C)(O)[C@@H](C)O)NC(=O)[C@H]5CSC(=N5)/C(=C/C)NC(=O)[C@H]([C@@H](C)O)NC(=O)c5csc(n5)[C@]3(CC2)NC(=O)[C@H](C)NC(=O)C(=C)NC(=O)[C@H](C)NC(=O)[C@H]([C@@H](C)CC)N[C@@H]2C=Cc3c([C@H](C)O)cc(nc3[C@H]2O)C(=O)O[C@@H]4C)n1)C(N)=O [thiostrepton, Thiostrepton]
  IC50: 0.03 µM

From patent US20040254100A1, “Use of thiostrepton as an anti-mycobacterial agent” (priority 2000, published 2004)
